We go through three compounds from US11286459B2, “Cell culturing method using nucleic acid-containing medium” (Astellas Pharma Inc., priority 2015, dated 2022).

What all share (format): cell-based, Chinese hamster
Assay [1] relates to IgG-expressing CHO cell line (anti-human α9 antibody RY9A2v12 (M34L) 012). Put plainly: Fed-batch culture with deoxyuridine, thymidine and/or deoxycytidine (Example 4). To be noted: 25 mg/L. As for the experimental part: Using a culture medium for animal cells as a cell growth medium, fed-batch culture of an IgG-expressing CHO cell line (a CHO cell line in which an anti-human α9 antibody ([…]) 012) had been recombinantly expressed, as described in WO 2009/088064) was started at an initial viable cell density of 1×10^6 cells/mL under the conditions of 36.5° C. and 5% CO2. At the start of culture, deoxyuridine, thymidine, and/or deoxycytidine was/were each added to a final concentration of 0 or 25 mg/L according to Table 2. The culture was continued until day 14 of culture while a feed culture medium was added everyday from day 2 of culture. Sampling was done at appropriate timings. Viable cell densities were measured by trypan blue exclusion method, and antibody concentrations were measured by protein A column HPLC. […] [table]

For assay [2], the system named is IgG-expressing CHO cell line (anti-human TSLP receptor antibody, fully human T7-27). The assay can be described thus: Fed-batch culture with deoxyuridine in the presence of thymidine and deoxycytidine (Example 2). As to conditions: for highest viable cell density observed during the 14 days of culture: at start of culture; for antibody concentration on the final day of culture: day 14. As for the experimental part:
Using a culture medium for animal cells as a cell growth medium, fed-batch culture of an IgG-expressing CHO cell line (a CHO cell line in which an anti-human TSLP receptor antibody (fully human T7-27) had been recombinantly expressed, as described in WO 2015/020193) was started at an initial viable cell density of 1×10^6 cells/mL under the conditions of 36.5° C. and 5% CO2. At the start of culture, thymidine and deoxycytidine hydrochloride (in the working examples given in the subject specification, deoxycytidine hydrochloride was actually used as deoxycytidine, and the concentrations of deoxycytidine hydrochloride are expressed by using the converted concentration value of deoxycytidine from deoxycytidine hydrochloride.) were each added to cultures to a final concentration of 25 mg/L, and deoxyuridine was added to a final concentration of 10, 25, 40, 55, 70 or 85 mg/L. The culture was continued until day 14 of culture while a feed culture medium was added everyday from day 2 of culture. Sampling was done at appropriate timings. Viable cell densities were measured by trypan blue exclusion method, and antibody concentrations were measured by protein A column HPLC.

The test system is the same in assay [3]. The assay can be described thus: Fed-batch culture, comparison with uridine and thymidine (Example 7). To be noted: 25 mg/L of each added component. As for the experimental part: (§1) Using a culture medium for animal cells as a cell growth medium, fed-batch culture of an IgG-expressing CHO cell line (a CHO cell line in which an anti-human TSLP receptor antibody (fully human T7-27) had been recombinantly expressed, as described in WO 2015/020193) was started at an initial viable cell density of 1×10^6 cells/mL under the conditions of 36.5° C. and 5% CO2. At the start of culture, deoxyuridine, thymidine and deoxycytidine were each added to a final concentration of 25 mg/L. To provide comparative conditions, uridine (U) and thymidine were added, at the start of culture, at concentrations of 7 mg/L and 0.24 mg/L, respectively (these concentrations are the same as those described in Examples of EP 1818392 B1). The culture was continued under each of the different conditions described above until day 14 of culture while a feed culture medium was added everyday from day 2 of culture. Sampling was done at appropriate timings. Viable cell densities were measured by trypan blue exclusion method, and antibody concentrations were measured by protein A column HPLC.

Assay [4] has as its system Fab′ fragment-expressing CHO cell line (anti-human NGF antibody Fab′ fragment 1-15 (N52D-A)-Fab′). The assay can be described thus: Fed-batch culture, comparison with uridine and thymidine (Example 9). To be noted: 25 mg/L of each added component. As for the experimental part: Using a culture medium for animal cells as a cell growth medium, fed-batch culture of a Fab′ fragment-expressing CHO cell line (a CHO cell line in which an anti-human NGF antibody Fab′ fragment (1-15 (N52D-A)-Fab′) had been expressed, as described in WO 2013/022083) was started at an initial viable cell density of 1×10^6 cells/mL under the conditions of 36.5° C. and 5% CO2. At the start of culture, deoxyuridine, thymidine and deoxycytidine were each added to a final concentration of 25 mg/L. To provide comparative conditions, uridine and thymidine were added, at the start of culture, at concentrations of 7 mg/L and 0.24 mg/L, respectively (these concentrations are the same as those described in Examples of EP 1818392 B1). The culture was continued under each of the different conditions described above until day 14 of culture while a feed medium was added everyday from day 2 of culture. Sampling was done at appropriate timings. Viable cell densities were measured by trypan blue exclusion method, and antibody concentrations were measured by reverse-phase HPLC.

In assay [5] the test system is IgG-expressing CHO cell line (anti-human α9 antibody RY9A2v12 (M34L) 012). Put plainly: Fed-batch culture, comparison with uridine and thymidine (Example 8). To be noted: 25 mg/L of each added component. Here is the method:
as §1, with “α9” for “TSLP receptor”, “([…]) 012)” for “(fully human T7-27)”, “2009/088064)” for “2015/020193)”, “uridine” for “uridine (U)”, “feed” for “feed culture”, “HPLC. […] In contrast, the highest viable cell densities were approximately 21×10^6 cells/mL in the case of addition of 25 mg/L deoxyuridine (dU25 mg/L), and about 31×10^6 cells/mL in the case of addition of 25 mg/L each of deoxyuridine, thymidine and deoxycytidine (dUdTdC25 mg/L); these values were higher than control.” for “HPLC.”

For assay [6], the system named is IgG-expressing CHO cell line (anti-human α9 integrin antibody RY9A2v12 (M34L) 012). The assay can be described thus: Batch culture with deoxyuridine (Example 6). Here is the method: Using a culture medium for animal cells as a cell growth medium, batch culture of an IgG-expressing CHO cell line (a CHO cell line in which an anti-human α9 integrin antibody (hereinafter referred to as “anti-human α9 antibody”) (RY9A2v12 (M34L) 012) had been recombinantly expressed, as described in WO 2009/088064) was started at an initial viable cell density of 0.3×10^6 cells/mL under the conditions of 36.5° C. and 5% CO2. At the start of culture, deoxyuridine was added to cultures to a final concentration of 5, 25, 100, 500 or 1000 mg/L, and then the culture was continued for 5 days. Sampling was done at appropriate timings. Viable cell densities were measured bytrypan blue exclusion method, and antibody concentrations were measured by protein A column HPLC.

The test system of assay [7] is IgG-expressing CHO cell line (anti-human TSLP receptor antibody, fully human T7-27). The assay can be described thus: Fed-batch culture with deoxyuridine added on day 2 (Example 1); trypan blue exclusion, protein A column HPLC. As for the experimental part: Using a culture medium for animal cells as a cell growth medium, fed-batch culture of an IgG-expressing CHO cell line (a CHO cell line in which an anti-human thymic stromal lymphopoietin (TSLP) receptor antibody (fully human T7-27) had been recombinantly expressed, as described in WO 2015/020193) was started at an initial viable cell density of 1×10^6 cells/mL under the conditions of 36.5° C. and 5% CO2. On day 2 of culture, deoxyuridine was added to cultures to a final concentration of 10, 25, 50, 100 or 200 mg/L. The culture was continued until day 14 of culture while a feed medium was added everyday from day 2 of culture. Sampling was done at appropriate timings. Viable cell densities were measured by trypan blue exclusion study, and antibody concentrations were measured by protein A column HPLC. […] It was also observed that even addition of […] deoxyuridine enhancedantibody production during the cell culture until day 10 to day 12.

For assay [8] the test system is unchanged. The assay can be described thus: Fed-batch culture with deoxyuridine, thymidine and deoxycytidine added on day 2 (Example 3). To be noted: 25 mg/L of each added component. Here is the method: Using a culture medium for animal cells as a cell growth medium, fed-batch culture of an IgG-expressing CHO cell line (a CHO cell line in which an anti-human TSLP receptor antibody (fully human T7-27) had been recombinantly expressed, as described in WO 2015/020193) was started at an initial viable cell density of 1×10^6 cells/mL under the conditions of 36.5° C. and 5% CO2. On day 2 of culture, deoxyuridine was added to a final concentration of 25 mg/L, and thymidine and deoxycytidine were each added to cultures to a final concentration of 0 or 25 mg/L according to Table 1. The culture was continued until day 14 of culture while a feed culture medium was added everyday from day 2 of culture. Sampling was done at appropriate timings. Viable cell densities were measured by trypan blue exclusion method, and antibody concentrations were measured by protein A column HPLC. […] In contrast, in the case of addition of deoxyuridine in the presence of 25 mg/L each of thymidine and deoxycytidine (dU-dT-dC), the viable cell density, cell viability, and antibody concentration on the final day of the 14 days of culture were 12×10^6 cells/mL, approximately 78%, and 5.8 g/L, respectively; these values were higher than in the cases of addition of dU, addition of deoxyuridine and deoxycytidine (dU-dC), and addition of deoxyuridine and thymidine (dU-dT). […] [table]

Setting [9] is: 10 mg/L deoxyuridine with 25 mg/L each thymidine and deoxycytidine.
The mark [10] stands for this setting: 25 mg/L deoxyuridine with 25 mg/L each thymidine and deoxycytidine.

Take `Nc1ccn([C@H]2C[C@H](O)[C@@H](CO)O2)c(=O)n1` [deoxycytidine]: the “effects when added alone (viable cell density, antibody concentration)” value (from here on “effects when added alone”) in assay [1] is “no effect”.
In the case of `O=c1ccn([C@H]2C[C@H](O)[C@@H](CO)O2)c(=O)[nH]1` [deoxyuridine], the “highest viable cell density observed during the 14 days of culture” value was “about 27 ×10^6 cells/mL” in assay [2] (setting [9]); “approximately 32 ×10^6 cells/mL” in assay [2] (setting [10]); “approximately 21 ×10^6 cells/mL” in assay [3] (at start of culture, control approximately 12); “approximately 26 ×10^6 cells/mL” in assay [4] (at start of culture, control approximately 14); “approximately 21 ×10^6 cells/mL” in assay [5] (at start of culture, control about 16); “about 18 ×10^6 cells/mL” in assay [7] (25 mg/L deoxyuridine added on day 2, control about 10). Also, the “antibody concentration on the final day of culture” value is 5.9 g/L in assay [2] (setting [9]); 6.8 g/L in assay [2] (setting [10]); “approximately 4.6 g/L” in assay [3] (day 14, control approximately 2.9); 5.5 g/L in assay [7] (25 mg/L deoxyuridine added on day 2, day 14, control 3.3). In addition, the “enhancing effects on cell growth and antibody production” value in assay [2] (deoxyuridine 25 mg/L or higher in the presence of thymidine and deoxycytidine, versus 10 mg/L) is “higher enhancing effects on cell growth and antibody production”. The “protein concentration on the final day of culture” value in assay [4] (day 14, control approximately 2.2) is “approximately 3.1 g/L”. The “effects when added alone” value in assay [1] was “produce effects”. The “antibody concentrations during culture versus control” value in assay [5] (FIG. 16) is on record as “higher levels than control”. Moreover, the “highest viable cell density observed during the 5 days of culture” value in assay [6] (100 mg/L deoxyuridine at start of batch culture, control approximately 7) is recorded as “approximately 10 ×10^6 cells/mL”. Further, in assay [6] (any concentration tested from 5 mg/L to 500 mg/L), the “effect on cell growth” value is on record as “enhancing effect on cell growth”. Further, the “antibody production during the cell culture until day 10 to day 12” value in assay [7] (10 mg/L deoxyuridine) is “enhanced”. Moreover, the “response to deoxyuridine addition (cell growth and antibody production)” value in assay [7] (any concentration tested from 10 mg/L to 200 mg/L) was “enhanced cell growth and antibody production”. For the same compound, the “antibody concentration on the final day of the 14 days of culture” value in assay [8] was determined as 5.1 g/L. Moreover, in assay [8], the “cell viability on the final day of the 14 days of culture” value is recorded as “approximately 61%”. Besides, the “viable cell density on the final day of the 14 days of culture” value in assay [8] is “approximately 7.6 ×10^6 cells/mL”.
Consider `Cc1cn([C@H]2C[C@H](O)[C@@H](CO)O2)c(=O)[nH]c1=O` [thymidine], for which, in assay [1], the “effects when added alone” value is “produce effects”.
